Test results: ChEMBL document CHEMBL4732043, “The discovery of novel indazole derivatives as tubulin colchicine site binding agents that displayed potent antitumor activity both in vitro and in vivo” (Eur J Med Chem, 2020)

Tests used:
SW-620 = experiment: Antiproliferative activity against human SW-620 cells assessed as cell viability after 72 hrs by MTT assay; assay type: functional
HCT-116 [1] = experiment: Antitumor activity against human HCT-116 cells xenografted in nude mouse assessed as inhibition of tumor growth at 25 mg/kg, po for 21 days; assay type: functional; conditions: HCT-116, po, 504 h, time 21 day, read-out: TGI
[2] = Toxicity in nude mouse xenografted with human HCT-116 cells assessed as change in body weight at 12.5 mg/kg, po for 21 days (reference value: 2.2%); assay type: organism-based; conditions: in vivo, 504 h, time 21 day
HCT-116 [3] = experiment: Induction of cell cycle arrest in human HCT-116 cells assessed as accumulation of cells at S phase at 10 nM after 24 hrs by flow cytometry (reference value: 43.12%); assay type: functional
HCT-116 [4] = experiment: Induction of apoptosis in human HCT-116 cells assessed as early apoptotic cells at 40 nM after 24 hrs by annexinV and 7-ADD staining based flow cytometry (reference value: 0.9%); assay type: functional
HCT-116 [5] = experiment: Induction of cell cycle arrest in human HCT-116 cells assessed as accumulation of cells at S phase at 20 nM after 24 hrs by flow cytometry (reference value: 43.12%); assay type: functional
HCT-116 [6] = experiment: Induction of apoptosis in human HCT-116 cells assessed as viable cells at 20 nM after 24 hrs by annexinV and 7-ADD staining based flow cytometry (reference value: 96.7%); assay type: functional; conditions: read-out: Activity
HCT-116 [7] = experiment: Induction of cell cycle arrest in human HCT-116 cells assessed as accumulation of cells at G1 phase at 20 nM after 24 hrs by flow cytometry (reference value: 40.5%); assay type: functional
HCT-116 [8] = experiment: Antiproliferative activity against human HCT-116 cells assessed as cell viability after 72 hrs by MTT assay; assay type: functional
A549 = experiment: Antiproliferative activity against human A549 cells assessed as cell viability after 72 hrs by MTT assay; assay type: functional
HCT-116 [9] = experiment: Induction of apoptosis in human HCT-116 cells assessed as viable cells at 40 nM after 24 hrs by annexinV and 7-ADD staining based flow cytometry (reference value: 96.7%); assay type: functional; conditions: read-out: Activity
HCT-116 [10] = experiment: Induction of apoptosis in human HCT-116 cells assessed as late apoptotic cells at 10 nM after 24 hrs by annexinV and 7-ADD staining based flow cytometry (reference value: 1.5%); assay type: functional
HCT-116 [11] = experiment: Induction of apoptosis in human HCT-116 cells assessed as late apoptotic cells at 20 nM after 24 hrs by annexinV and 7-ADD staining based flow cytometry (reference value: 1.5%); assay type: functional
HepG2 = experiment: Antiproliferative activity against human HepG2 cells assessed as cell viability after 72 hrs by MTT assay; assay type: functional
HCT-116 [12] = experiment: Induction of cell cycle arrest in human HCT-116 cells assessed as accumulation of cells at G1 phase at 10 nM after 24 hrs by flow cytometry (reference value: 40.5%); assay type: functional
HCT-116 [13] = experiment: Induction of apoptosis in human HCT-116 cells assessed as necrotic cells at 20 nM after 24 hrs by annexinV and 7-ADD staining based flow cytometry (reference value: 0.9%); assay type: functional
HCT-116 [14] = experiment: Induction of cell cycle arrest in human HCT-116 cells assessed as accumulation of cells at G2/M phase at 20 nM after 24 hrs by flow cytometry (reference value: 16.35%); assay type: functional
HCT-116 [15] = experiment: Induction of cell cycle arrest in human HCT-116 cells assessed as accumulation of cells at G2/M phase at 10 nM after 24 hrs by flow cytometry (reference value: 16.35%); assay type: functional
[16] = Toxicity in nude mouse xenografted with human HCT-116 cells assessed as change in body weight at 25 mg/kg, po for 21 days (reference value: 2.2%); assay type: organism-based; conditions: in vivo, 504 h, time 21 day
HCT-116 [17] = experiment: Induction of apoptosis in human HCT-116 cells assessed as early apoptotic cells at 10 nM after 24 hrs by annexinV and 7-ADD staining based flow cytometry (reference value: 0.9%); assay type: functional
Tubulin (Homo sapiens) [18] = biological target: T1, Tubulin (Homo sapiens) (UniProt P68371+Q9H4B7+P0DPH7+P68366+Q13509+Q71U36+P04350+Q3ZCM7+P07437+P68363+Q9BQE3+Q6PEY2+Q13885+Q9BVA1+Q9BUF5); experiment: Inhibition of tubulin polymerization in human HCT-116 cells assessed as complete microtubule depolymerization at 40 nM after 24 hrs by immunofluorescence analysis; assay type: cell-based
HCT-116 [19] = experiment: Antitumor activity against human HCT-116 cells xenografted in nude mouse assessed as inhibition of tumor growth at 12.5 mg/kg, po for 21 days; assay type: functional; conditions: HCT-116, po, 504 h, time 21 day, read-out: TGI
[20] = biological target: Tubulin beta (Homo sapiens) (UniProt P68371+Q9H4B7+Q13509+P04350+Q3ZCM7+P07437+Q13885+Q9BVA1+Q9BUF5+A6NNZ2); experiment: Inhibition of N,N'-Ethylenebis(iodoacetamide) binding to beta-tubulin in human HCT-116 cells assessed as reduction in EBI/beta-tubulin adduct formation preincubated for 2 hrs followed by EBI addition and measured after 1.5 hrs by Western blot analysis; assay type: cell-based; conditions: dose 0.2-25 µM, time 3.5 hrs
HCT-116 [21] = experiment: Induction of apoptosis in human HCT-116 cells assessed as necrotic cells at 10 nM after 24 hrs by annexinV and 7-ADD staining based flow cytometry (reference value: 0.9%); assay type: functional
HT-29 = experiment: Antiproliferative activity against human HT-29 cells assessed as cell viability after 72 hrs by MTT assay; assay type: functional
Tubulin (Homo sapiens) [22] = biological target: T1, Tubulin (Homo sapiens); experiment: Inhibition of tubulin polymerization in human HCT-116 cells assessed as microtubule spindle formation after 24 hrs by immunofluorescence analysis; assay type: cell-based; conditions: dose 20-40 nM
[23] = (§1) Inhibition of porcine brain tubulin polymerization by fluorescence based assay; assay type: cell-based, Sus scrofa domesticus, 1-87 tumor cell line
1-87 tumor cell line = experiment: as §1; conditions: Sus scrofa domesticus
HCT-116 [24] = experiment: Induction of apoptosis in human HCT-116 cells assessed as viable cells at 10 nM after 24 hrs by annexinV and 7-ADD staining based flow cytometry (reference value: 96.7%); assay type: functional; conditions: read-out: Activity
[25] = Cytotoxicity against HUVEC assessed as cell viability after 72 hrs by MTT assay; assay type: cell-based; conditions: human, HUVEC cells
HCT-116 [26] = experiment: Induction of apoptosis in human HCT-116 cells assessed as late apoptotic cells at 40 nM after 24 hrs by annexinV and 7-ADD staining based flow cytometry (reference value: 1.5%); assay type: functional
Tubulin (Homo sapiens) [27] = biological target: T1, Tubulin (Homo sapiens); experiment: Inhibition of tubulin polymerization in human HCT-116 cells assessed as microtubule network polymerization after 24 hrs by immunofluorescence analysis; assay type: cell-based; conditions: dose 20-40 nM
HCT-116 [28] = experiment: Induction of apoptosis in human HCT-116 cells assessed as early apoptotic cells at 20 nM after 24 hrs by annexinV and 7-ADD staining based flow cytometry (reference value: 0.9%); assay type: functional
HCT-116 [29] = experiment: Induction of apoptosis in human HCT-116 cells assessed as necrotic cells at 40 nM after 24 hrs by annexinV and 7-ADD staining based flow cytometry (reference value: 0.9%); assay type: functional

Compound: COc1cc(Nc2n[nH]c3cc(C)ccc23)cc(OC)c1OC
- GI50 (SW-620): 0.008 µM
- inhibition in vivo at 25 mg/kg (HCT-116 [1]): 45.3%
- Activity [2]: 2.7%
- Activity (HCT-116 [3]): 36.46%
- Activity (HCT-116 [4]): 15.4%
- Activity (HCT-116 [5]): 4.68%
- viability at 0.02 µM (HCT-116 [6]): 75.4%
- Activity (HCT-116 [7]): 14.25%
- GI50 (HCT-116 [8]): 0.015 µM
- GI50 (A549): 0.033 µM
- viability at 0.04 µM (HCT-116 [9]): 62.2%
- Activity (HCT-116 [10]): 12.7%
- Activity (HCT-116 [11]): 13.7%
- GI50 (HepG2): 0.027 µM
- Activity (HCT-116 [12]): 34.54%
- Activity (HCT-116 [13]): 2.1%
- Activity (HCT-116 [14]): 81.07%
- Activity (HCT-116 [15]): 29%
- Activity [16]: 6.5%
- Activity (HCT-116 [17]): 4.7%
- inhibition (Tubulin (Homo sapiens) [18]): 100%
- inhibition in vivo at 12.5 mg/kg (HCT-116 [19]): 27.4%
- inhibition [20]: Dose-dependent effect
- Activity (HCT-116 [21]): 2.7%
- GI50 (HT-29): 0.031 µM
- inhibition (Tubulin (Homo sapiens) [22]): Dose-dependent effect
- IC50 [23]: 3.39 µM
- inhibition (1-87 tumor cell line): Dose-dependent effect
- viability at 0.01 µM (HCT-116 [24]): 79.9%
- GI50 at 72 h [25]: > 25 µM
- Activity (HCT-116 [26]): 20.9%
- inhibition (Tubulin (Homo sapiens) [27]): Dose-dependent effect
- Activity (HCT-116 [28]): 8.9%
- Activity (HCT-116 [29]): 1.5%

Compound: COc1cc(Nc2n[nH]c3c(C)cccc23)cc(OC)c1OC
- GI50 (HCT-116 [8]): 4.6 µM
- GI50 (A549): 4.3 µM
- GI50 (HepG2): 5.4 µM

Compound: COc1cc(Nc2n[nH]c3cc(OC)ccc23)cc(OC)c1
- GI50 (HCT-116 [8]): 0.96 µM
- GI50 (A549): 0.51 µM
- GI50 (HepG2): 0.78 µM

Compound: Fc1ccc2c(Nc3ccc4c(c3)OCO4)n[nH]c2c1
- GI50 (HCT-116 [8]): > 25 µM
- GI50 (A549): > 25 µM
- GI50 (HepG2): > 25 µM

Compound: COc1ccc2c(Nc3ccc(OC)c(OC)c3)n[nH]c2c1
- GI50 (HCT-116 [8]): 14.6 µM
- GI50 (A549): > 25 µM
- GI50 (HepG2): > 25 µM

Compound: COc1cc(Nc2n[nH]c3cc(C)ccc23)cc(OC)c1
- GI50 (HCT-116 [8]): 0.7 µM
- GI50 (A549): 1.1 µM
- GI50 (HepG2): 0.2 µM

Compound: COc1ccc(Nc2n[nH]c3ccc(C)cc23)cc1OC
- GI50 (HCT-116 [8]): 22.3 µM
- GI50 (A549): > 25 µM
- GI50 (HepG2): > 25 µM

Compound: O=c1[nH]cc(F)c(=O)[nH]1 [FLUOROURACIL]
- inhibition in vivo at 25 mg/kg (HCT-116 [1]): 45.5%
- Activity [16]: 21.8%

Compound: COc1cc(Nc2n[nH]c3cc(F)ccc23)cc(OC)c1OC
- GI50 (HCT-116 [8]): 5.3 µM
- GI50 (A549): 21.3 µM
- GI50 (HepG2): 16 µM

Compound: Cc1ccc2c(Nc3ccc4c(c3)OCO4)n[nH]c2c1
- GI50 (HCT-116 [8]): 23.7 µM
- GI50 (A549): > 25 µM
- GI50 (HepG2): > 25 µM

Compound: COc1ccc(Nc2n[nH]c3cc(F)ccc23)cc1OC
- GI50 (HCT-116 [8]): 16.7 µM
- GI50 (A549): > 25 µM
- GI50 (HepG2): > 25 µM

Compound: COc1cc(Nc2n[nH]c3ccc(C)cc23)cc(OC)c1
- GI50 (HCT-116 [8]): > 25 µM
- GI50 (A549): > 25 µM
- GI50 (HepG2): > 25 µM
